# Reference: US12408667B2, “Herbicidal mixtures comprising isoxaflutole, pyroxasulfone and an imidazolinone herbicide; and their use in soybean and cotton cultures” (BASF SE, priority 2018, dated 2025)
# System: GALAP (Galium aparine)
# Experiment: greenhouse experiment, herbicidal action, evaluated on a scale from 0 to 100
# Format: in vivo
# Conditions: pre-emergence greenhouse
# Excerpt: Synergism can be described as an interaction where the combined effect of two or more compounds is greater than the sum of the individual effects of each of the compounds. The presence of a synergistic effect in terms of percent control, between two mixing partners (X and Y) can be calculated using the Colby equation (Colby, S. R., 1967, Calculating Synergistic and Antagonistic Responses in Herbicide Combinations, Weeds, 15, 21-22): E=X+Y−XY/100
# When the observed combined control effect is greater than the expected (calculated) combined control effect (E), then the combined effect is synergistic.
# The culture containers used were plastic flowerpots containing loamy sand with approximately 3.0% of humus as the substrate. The seeds of the test plants were sown separately for each species. For pre-emergence treatment, the active ingredients, which had been suspended or emulsified in water, were applied directly after sowing by means of finely distributing nozzles. The containers were irrigated gently to promote germination and growth and subsequently covered with transparent plastic hoods until the plants had rooted. This cover caused uniform germination of the test plants, unless this had been impaired by the active ingredients. […] During this time, the plants were tended, and their response to the individual treatments was evaluated. […]
compound,measurement,setting,value
"CS(=O)(=O)c1cc(C(F)(F)F)ccc1C(=O)c1cnoc1C1CC1 [Isoxaflutole, isoxaflutole]","Herbicidal action against GALAP, Found","Isoxaflutole 12.5 g/ha alone, 20 days, scale 0 to 100",0
same,"Herbicidal action against GALAP, Found","Isoxaflutole 25 g/ha alone, test period 20 days, scale 0 to 100 (100 = no emergence or complete destruction)",0
